{
  "source": "patent US20250296971A1",
  "about": "“GASTRIC INHIBITORY PEPTIDE RECEPTOR LIGANDS” (priority 2021, published 2025)",
  "key": {"[1]": {"target": "Recombinant soluble human NEP (Homo sapiens, UniProt P08473)", "sequence (P08473 52-750 limits assumed)": "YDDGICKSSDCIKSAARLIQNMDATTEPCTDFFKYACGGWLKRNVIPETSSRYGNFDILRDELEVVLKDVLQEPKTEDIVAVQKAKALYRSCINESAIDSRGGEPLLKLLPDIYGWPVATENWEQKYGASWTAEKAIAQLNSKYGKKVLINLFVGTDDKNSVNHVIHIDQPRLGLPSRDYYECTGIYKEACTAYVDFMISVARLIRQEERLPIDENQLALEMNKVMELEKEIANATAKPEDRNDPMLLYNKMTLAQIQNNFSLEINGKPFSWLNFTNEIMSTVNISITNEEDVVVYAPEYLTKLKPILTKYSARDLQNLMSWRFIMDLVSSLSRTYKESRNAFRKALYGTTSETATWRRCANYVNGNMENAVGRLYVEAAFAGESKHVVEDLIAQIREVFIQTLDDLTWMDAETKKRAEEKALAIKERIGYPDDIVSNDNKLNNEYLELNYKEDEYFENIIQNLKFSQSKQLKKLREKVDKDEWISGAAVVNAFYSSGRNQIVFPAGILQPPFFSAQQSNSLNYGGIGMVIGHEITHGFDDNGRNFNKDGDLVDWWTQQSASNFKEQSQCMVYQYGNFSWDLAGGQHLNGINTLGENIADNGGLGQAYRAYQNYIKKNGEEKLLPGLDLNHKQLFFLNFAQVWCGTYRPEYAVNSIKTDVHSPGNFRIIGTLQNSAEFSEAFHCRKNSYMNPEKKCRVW", "assay": "Proteolytic stability assay against NEP", "conditions": "NEP 100 ng/mL, compound 10 μM, 37° C., % intact compound remaining"}, "Human GIPR": {"target": "T1, Human GIPR (Homo sapiens, UniProt P48546)", "T1 construct": "host or cells: CHO-K1 or CHO-VGT", "T1 sequence (P48546 22-466)": "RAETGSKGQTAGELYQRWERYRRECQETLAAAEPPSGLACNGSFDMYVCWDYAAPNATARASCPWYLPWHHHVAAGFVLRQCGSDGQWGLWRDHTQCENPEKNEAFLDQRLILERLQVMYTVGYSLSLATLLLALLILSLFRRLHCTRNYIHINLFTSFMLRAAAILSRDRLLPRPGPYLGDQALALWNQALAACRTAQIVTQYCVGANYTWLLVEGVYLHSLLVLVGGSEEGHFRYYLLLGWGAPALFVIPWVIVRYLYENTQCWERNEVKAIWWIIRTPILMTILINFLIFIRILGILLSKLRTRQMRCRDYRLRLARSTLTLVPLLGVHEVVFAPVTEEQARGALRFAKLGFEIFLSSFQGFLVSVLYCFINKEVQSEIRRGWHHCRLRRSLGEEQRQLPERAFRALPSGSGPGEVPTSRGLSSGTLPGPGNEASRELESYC", "assay": "Radioligand binding assay, human GIPR", "conditions": "111In-labeled compound, 6 h, 37° C., read-out: pKD Category (converted)", "method": "(§1) In order to assess the affinity of ^111In-labeled compounds to the GIPR receptor of different species, a radioligand binding assay was established.\n(§2) CHO-K1 cells (GenScript Biotech, #M00486) were stably transfected with the human GIPR. CHO-K1-hGIPR cells were cultured in Ham's F12 medium (Sigma-Aldrich, #N4888) including 10% fetal calf serum (FCS), 2 mM L-glutamine, 100 U/mL penicillin, 100 µg/mL streptomycin, 200 µg/mL Zeocin and 100 µg/mL HygromycinB. To evaluate the species cross-reactivity, CHO-VGT cells were transfected with the human, dog, rat and mouse GIPR (Inscreenex GmbH), which were cultured in DMEM/Ham's F12 Medium 1:1 (Biochrom, #F485) including 5% fetal calf serum (FCS), 2 mM L-glutamine, 100 U/mL penicillin and 100 μg/mL streptomycin. Cells were detached with Accutase (Biolegend, #BLD-423201) and counted using a particle counter (CASY Model TT; Schärfe Systems). Cell concentrations were adjusted to 3×10^5 mL^−1, and 1.000 μL of the suspension per well were dispensed into flat-clear-bottom 24 well plates.\n(§3) Approximately 24 hours after re-seeding, the medium was aspirated and the cells were washed once with 700 μL assay medium (Ham's medium with 20 mM HEPES). […]\n(§4) At the end of incubation time, cells were washed and subsequently harvested in 300 μL RIPA buffer containing PIC. Radioactivity of the cell lysate of each well was counted using a gamma counter (Perkin Elmer). […]"}, "[2]": {"assay": "Plasma stability assay, human plasma", "assay_type": "in vitro ADME", "conditions": "37° C., % intact compound remaining after 4 h or 24 h", "method": "In order to determine the stability of selected compounds of the invention in human and mouse plasma, a plasma stability assay was carried out. Such plasma stability assay measures degradation of compounds of the present invention in blood plasma. This is an important characteristic of a compound as compounds, with the exception of pro-drugs, which rapidly degrade in plasma, generally show poor in vivo efficacy. […] The stability is sufficient for the diagnostic, therapeutic and theragnostic use of these compounds according to the present invention.\nThe plasma stability samples were prepared by spiking 50 μL plasma aliquots (all K2EDTA) with 1 μL of a 0.5 mM compound stock solution in DMS0. After vortexing the samples were incubated in a Thermomixer at 37° C. for 0, 4 and 24 hours. After incubation the samples were stored on ice until further treatment. All samples were prepared in duplicates.\nA suitable internal standard was added to each sample (1 μL of a 0.5 mM stock solution in DMSO). Protein precipitation was performed by addition of 250 μL of acetonitrile containing 1% trifluoroacetic acid. After incubation at room temperature for 30 min the precipitate was separated by centrifugation and 150 μL of the supernatant was diluted with 150 μL of 1% aqueous formic acid.\nAdditionally, recovery was determined by spiking a pure plasma sample that only contained the internal standard after treatment with a certain amount of the compound.\nCarry-over was evaluated by analysis of a blank sample (20% acetonitrile) after the highest calibration sample."}, "[3]": {"assay": "Plasma stability assay, mouse plasma", "assay_type": "in vitro ADME", "conditions": "37° C., % intact compound remaining after 4 h or 24 h", "method_in_brief": "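K2EDTA mouse or human plasma spiked with compound from 0.5 mM DMSO stock, incubated at 37 °C for 0, 4 and 24 h in duplicate. Proteins precipitated with acetonitrile/1% TFA, internal standard added; recovery and carry-over evaluated.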"}, "Dog GIPR": {"target": "T2, Dog GIPR (Canis lupus familiaris, UniProt A0A8I3MPG1)", "T2 construct": "host or cells: CHO-VGT", "T2 sequence (A0A8I3MPG1 24-449)": "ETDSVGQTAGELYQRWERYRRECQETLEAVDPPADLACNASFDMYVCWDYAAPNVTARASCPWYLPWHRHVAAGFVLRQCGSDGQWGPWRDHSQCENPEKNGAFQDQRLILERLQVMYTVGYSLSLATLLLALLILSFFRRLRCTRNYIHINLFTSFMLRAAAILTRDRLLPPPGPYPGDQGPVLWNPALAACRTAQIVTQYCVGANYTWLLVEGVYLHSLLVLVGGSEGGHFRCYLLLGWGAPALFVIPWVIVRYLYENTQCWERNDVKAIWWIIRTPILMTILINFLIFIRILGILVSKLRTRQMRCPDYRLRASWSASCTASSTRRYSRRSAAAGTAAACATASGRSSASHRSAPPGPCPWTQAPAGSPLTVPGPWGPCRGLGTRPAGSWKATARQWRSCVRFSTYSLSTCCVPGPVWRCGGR", "assay": "Radioligand binding assay, dog GIPR", "conditions": "111In-labeled compound, 6 h, 37° C., read-out: pKD Category (converted)", "method": "as §1, §2, §3, §4"}},
  "note": "*1 amine or outer side, *2 acyl side, *3 side chain or, on linkers, in order; H or OH if unused. Where a SMILES comes first, the peptide text is derived from it. Bridges are numbered along the chain shown (N, C = ends). [ ]: non-standard residue; d: D form. The star is where a group is joined. NH(1-deoxy-D-glucityl) = OC[C@@H](O)[C@@H](O)[C@H](O)[C@@H](O)CN*; DOTA = O=C(O)CN1CCN(CC(=O)O)CCN(CC(=O)*)CCN(CC(=O)O)CC1; Trp(5-Cl) = N[C@@H](Cc1c[nH]c2ccc(Cl)cc12)C(=O)O; Pyridine(2,6-diCH2) = c1cc(C[*:1])nc(C[*:2])c1; Pro(4R-NH2) = N[C@H]1CN[C@H](C(=O)O)C1; Glutaryl = O=C(CCCC(=O)[*:2])[*:1]; X1 = O=C(CN1CCC(N[*:1])CC1)[*:2]; Api = NC1(C(=O)O)CCNCC1",
  "data": [
    {"smiles": "CC[C@H](C)[C@@H]1NC(=O)[C@H](CC(C)C)NC(=O)C2(CCN(C(=O)CN3CCN(CC(=O)O)CCN(CC(=O)O)CCN(CC(=O)O)CC3)CC2)NC(=O)[C@@H](NC(=O)[C@@H](CC(C)C)NC(=O)[C@H](CCC(=O)O)NC(=O)[C@@H]2C[C@@H](N)CN2C(=O)[C@H](Cc2c[nH]c3ccc(Cl)cc23)NC(=O)[C@H](Cc2c[nH]c3ccccc23)NC(=O)[C@H](CC(=O)O)NC(=O)CCCC(=O)NC[C@H](O)[C@@H](O)[C@H](O)[C@H](O)CO)CSCc2cccc(n2)CSC[C@@H](C(=O)NC2CCN(CC(=O)N[C@H](CCC(=O)NC[C@H](O)[C@@H](O)[C@H](O)[C@H](O)CO)C(N)=O)CC2)NC1=O", "note": "[GIP-001, AGLU-Glutar-Asp-Trp-5Clw-Tap-Glu-leu-[Cys(2Lut)-Apc(DOTA)-Leu-Ile-Cys]-APAc-glu(AGLU)-NH2] ({NH(1-deoxy-D-glucityl)-Glutaryl}-DW[Trp(5-Cl)][Pro(4R-NH2)]E[dL]C[Api](DOTA)LIC[X1][dE](NH(1-deoxy-D-glucityl))-NH2; linker 7-11 via Pyridine(2,6-diCH2))", "values": [
      {"measurement": "NEP stability category", "setting": "[1]", "value": "A (>80% intact after 24 hours)"},
      {"measurement": "Kd", "setting": "Human GIPR", "value": "< 316", "unit": "pM"},
      {"measurement": "Human plasma stability category", "setting": "[2]", "value": "A (>80% intact after 24 hours)"},
      {"measurement": "Mouse plasma stability category", "setting": "[3]", "value": "A (>80% intact after 24 hours)"},
      {"measurement": "Kd", "setting": "Dog GIPR", "value": "< 316", "unit": "pM"}
    ]}
  ]
}
